Experimental findings from ChEMBL document CHEMBL5154943, “Crystallography-Guided Optimizations of the Keap1-Nrf2 Inhibitors on the Solvent Exposed Region: From Symmetric to Asymmetric Naphthalenesulfonamides” (J Med Chem, 2022) are described below.

In brackets after ≈: the same amount, converted by molar mass. Activity calls are given as the source filed them. The rule behind the calls is not given here.

Data set [1] deals with Keap1/Nrf2 (Homo sapiens, UniProt Q14145). The data set is described as follows: Inhibition of recombinant N-terminal His6-tagged human Keap1-Nrf2 (322 to 609 residues) (unknown origin) protein-protein interaction expressed in Escherichia coli (DE3) incubated for 60 mins by fluorescence anisotropy assay.
Sequence of Keap1/Nrf2 (Q16236 whole entry, the tested form may be a part): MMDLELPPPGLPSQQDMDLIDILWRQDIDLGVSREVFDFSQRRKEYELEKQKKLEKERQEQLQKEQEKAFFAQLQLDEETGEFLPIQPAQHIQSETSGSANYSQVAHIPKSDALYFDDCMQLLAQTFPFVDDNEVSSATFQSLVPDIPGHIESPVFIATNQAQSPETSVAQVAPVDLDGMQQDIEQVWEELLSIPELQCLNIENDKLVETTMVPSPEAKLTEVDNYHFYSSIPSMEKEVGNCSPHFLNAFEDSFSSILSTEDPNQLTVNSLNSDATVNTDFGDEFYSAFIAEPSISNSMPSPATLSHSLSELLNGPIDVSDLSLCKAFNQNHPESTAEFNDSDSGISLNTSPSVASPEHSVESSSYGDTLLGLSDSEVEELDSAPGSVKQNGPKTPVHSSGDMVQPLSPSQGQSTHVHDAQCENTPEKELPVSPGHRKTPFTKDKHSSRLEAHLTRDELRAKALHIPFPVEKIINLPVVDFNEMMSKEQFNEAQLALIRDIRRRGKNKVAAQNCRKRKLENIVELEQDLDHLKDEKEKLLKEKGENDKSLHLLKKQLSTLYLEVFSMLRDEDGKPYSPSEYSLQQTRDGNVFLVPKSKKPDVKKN
Sequence of Keap1/Nrf2 (Q14145 whole entry, the tested form may be a part): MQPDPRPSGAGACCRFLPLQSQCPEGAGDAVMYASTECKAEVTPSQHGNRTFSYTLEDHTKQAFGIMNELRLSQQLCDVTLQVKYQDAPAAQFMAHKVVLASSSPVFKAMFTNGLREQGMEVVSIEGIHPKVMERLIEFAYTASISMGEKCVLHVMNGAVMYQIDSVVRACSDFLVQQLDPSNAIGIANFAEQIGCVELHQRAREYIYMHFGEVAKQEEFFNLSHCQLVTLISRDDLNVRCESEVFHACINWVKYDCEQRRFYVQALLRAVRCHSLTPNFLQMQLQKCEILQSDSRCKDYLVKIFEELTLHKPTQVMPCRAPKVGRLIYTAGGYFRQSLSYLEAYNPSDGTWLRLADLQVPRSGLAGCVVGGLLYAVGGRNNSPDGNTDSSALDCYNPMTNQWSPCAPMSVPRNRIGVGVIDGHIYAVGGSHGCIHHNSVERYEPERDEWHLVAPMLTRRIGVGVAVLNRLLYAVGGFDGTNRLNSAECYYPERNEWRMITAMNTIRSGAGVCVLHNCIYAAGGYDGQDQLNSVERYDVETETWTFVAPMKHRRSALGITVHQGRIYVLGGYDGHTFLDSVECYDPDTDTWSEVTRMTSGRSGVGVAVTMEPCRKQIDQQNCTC
Data set [2] deals with Peritoneal macrophage. Description: Cytotoxicity against mouse peritoneal macrophages assessed as reduction in cell viability measured after 24 hrs by Cell Titer-Blue assay. The format is functional. In general terms: The colour change of resazurin is a common sign of viable cells or microbes.
Data set [3] in a line: Aqueous solubility of the compound in PBS at pH 7 after 24 hrs by HPLC-UV analysis. The class given is physicochemical.
A short description of data set [4]: Aqueous solubility of the compound in PBS at pH 7.4 after 24 hrs by HPLC-UV analysis. The class given is physicochemical.
Data set [5] in a line: Aqueous solubility of the compound in PBS at pH 2 after 24 hrs by HPLC-UV analysis. The format is physicochemical.
Data set [6] concerns Peritoneal macrophage. The data set is described as follows: Antiinflammatory activity against LPS-induced mouse peritoneal macrophage assessed as suppression of ROS level at 10 uM pretreated with LPS followed by compound addition and measured after 6 hrs by DCFH-DA staining based fluorescence analysis. The format is functional, cell-based.
Data set [7] relates to Peritoneal macrophage. The data set is described as follows: Antiinflammatory activity against LPS-induced mouse peritoneal macrophage assessed as inhibition of TNF alpha level at 10 uM after 4 hrs by ELISA method. The class given is functional, cell-based. Background: ELISA stands for enzyme-linked immunosorbent assay.
The subject of data set [8] is Peritoneal macrophage. Description: Antiinflammatory activity against LPS-induced mouse peritoneal macrophage assessed as suppression of NO level at 10 uM pretreated with LPS followed by compound addition and measured after 24 hrs by Griess reagent based assay. The format is functional, cell-based. On the technique in general: Nitrite, measured by Griess reagent, commonly stands in for NO production.

What is called Kd is the free concentration of one partner at which half of the binding sites on the other are occupied at equilibrium, for simple one-to-one binding. One may read the CC50 as the concentration at which the toxic effect on the cells reaches its halfway point. As usually defined, the solubility is the concentration that dissolves in the medium under given conditions. Low values mean a poorly soluble substance, high ones a readily soluble substance.

For `COc1ccc(S(=O)(=O)N(CC(N)=O)c2ccc(N(CC(N)=O)S(=O)(=O)c3ccc(NC(=O)CN4CCC(C)CC4)cc3)c3ccccc23)cc1`, the Kd in data set [1] came out at 6110 nM. Further, the CC50 in data set [2] is above 50000 nM.

Regarding `COc1ccc(S(=O)(=O)N(CC(N)=O)c2ccc(N(CC(N)=O)S(=O)(=O)c3ccc(NC(=O)CN4CCN(C(C)C)CC4)cc3)c3ccccc23)cc1`, the Kd in data set [1] was determined as 1450 nM. Besides, the CC50 in data set [2] is above 100000 nM.

For `CCN1CCN(CCCC(=O)Nc2ccc(S(=O)(=O)N(CC(N)=O)c3ccc(N(CC(N)=O)S(=O)(=O)c4ccc(OC)cc4)c4ccccc34)cc2)CC1`, in data set [1], the dissociation constant Kd was found to be 580 nM. Also, in data set [2], the cytotoxic concentration (CC50) was above 100000 nM.

Take `COc1ccc(S(=O)(=O)N(CC(N)=O)c2ccc(N(CC(N)=O)S(=O)(=O)c3ccc(N)cc3)c3ccccc23)cc1`: the solubility at 24 h in data set [3] stood at 55.4 µg/mL (≈ 92.7 µM); in data set [4] it was 33.6 µg/mL (≈ 56.2 µM); in data set [5], 47.5 µg/mL (≈ 79.5 µM).

For `CCN1CCN(CCC(=O)Nc2ccc(S(=O)(=O)N(CC(N)=O)c3ccc(N(CC(N)=O)S(=O)(=O)c4ccc(OC)cc4)c4ccccc34)cc2)CC1.O=C(O)/C=C\C(=O)O`, the solubility at 24 h worked out at 122 µg/mL in data set [3], 80.5 µg/mL in data set [4] and 1050 µg/mL in data set [5].

On to `CCN1CCN(CC(=O)Nc2ccc(S(=O)(=O)N(CC(N)=O)c3ccc(N(CC(N)=O)S(=O)(=O)c4ccc(OC)cc4)c4ccccc34)cc2)CC1`, for which the Kd in data set [1] came out at 480 nM. For the same compound, the CC50 in data set [2] is above 100000 nM.

Take `CCCC(=O)Nc1ccc(S(=O)(=O)N(CC(N)=O)c2ccc(N(CC(N)=O)S(=O)(=O)c3ccc(OC)cc3)c3ccccc23)cc1`: the Kd in data set [1] was above 10000 nM. For the same compound, the CC50 in data set [2] is above 100000 nM.

Consider `COc1ccc(S(=O)(=O)N(CC(N)=O)c2ccc(N(CC(N)=O)S(=O)(=O)c3ccc(NC(=O)CCCN4CCSCC4)cc3)c3ccccc23)cc1`, for which, in data set [1], the Kd was 2920 nM. The CC50 in data set [2] is above 100000 nM.

As for `CCN1CCN(CCC(=O)Nc2ccc(S(=O)(=O)N(CC(N)=O)c3ccc(N(CC(N)=O)S(=O)(=O)c4ccc(OC)cc4)c4ccccc34)cc2)CC1.O=C(O)CCC(=O)O`, the results for the solubility at 24 h in data set [3], in data set [4] and in data set [5] were 130 µg/mL, 76.9 µg/mL and 1080 µg/mL, respectively.

Take `COc1ccc(S(=O)(=O)N(CC(N)=O)c2ccc(N(CC(N)=O)S(=O)(=O)c3ccc(NC(=O)CN4CCOCC4)cc3)c3ccccc23)cc1`: the Kd in data set [1] came to 1350 nM. In data set [2], the CC50 is above 100000 nM.

`COc1ccc(S(=O)(=O)N(CC(N)=O)c2ccc(N(CC(N)=O)S(=O)(=O)c3ccc(NC(=O)CCCN4CCOCC4)cc3)c3ccccc23)cc1`: the Kd in data set [1] amounted to 1080 nM. In addition, the CC50 in data set [2] is above 100000 nM.

Regarding `COc1ccc(S(=O)(=O)N(CC(N)=O)c2ccc(N(CC(N)=O)S(=O)(=O)c3ccc(NC(=O)CCN4CCC(C)CC4)cc3)c3ccccc23)cc1`, the Kd in data set [1] turned out to be 2080 nM. Moreover, the CC50 in data set [2] was above 100000 nM.

Take `COc1ccc(S(=O)(=O)N(CC(N)=O)c2ccc(N(CC(N)=O)S(=O)(=O)c3ccc(NC(=O)CCCN4CCN(C(C)C)CC4)cc3)c3ccccc23)cc1`: the Kd in data set [1] worked out at 1480 nM. The CC50 in data set [2] is above 100000 nM.

As for `CCN1CCN(CCC(=O)Nc2ccc(S(=O)(=O)N(CC(N)=O)c3ccc(N(CC(N)=O)S(=O)(=O)c4ccc(OC)cc4)c4ccccc34)cc2)CC1.Cl`, the figures for the solubility at 24 h in data set [3], in data set [4] and in data set [5] were 151 µg/mL, 47.7 µg/mL and 1570 µg/mL, respectively.

As for `CCN1CCN(CCC(=O)Nc2ccc(S(=O)(=O)N(CC(N)=O)c3ccc(N(CC(N)=O)S(=O)(=O)c4ccc(OC)cc4)c4ccccc34)cc2)CC1.O=C(O)CC(O)(CC(=O)O)C(=O)O`, the values for the solubility at 24 h in data set [3], in data set [4] and in data set [5] were 129 µg/mL, 72.5 µg/mL and 1030 µg/mL, respectively.

Consider `Br.CCN1CCN(CCC(=O)Nc2ccc(S(=O)(=O)N(CC(N)=O)c3ccc(N(CC(N)=O)S(=O)(=O)c4ccc(OC)cc4)c4ccccc34)cc2)CC1`, for which the solubility at 24 h worked out at 170 µg/mL in data set [3], 130 µg/mL in data set [4] and 1460 µg/mL in data set [5].

For `CCC(=O)Nc1ccc(S(=O)(=O)N(CC(N)=O)c2ccc(N(CC(N)=O)S(=O)(=O)c3ccc(OC)cc3)c3ccccc23)cc1`, the dissociation constant Kd in data set [1] stood at 2810 nM. The cytotoxic concentration (CC50) in data set [2] is above 50000 nM.

For the compound `CCCCC(=O)Nc1ccc(S(=O)(=O)N(CC(N)=O)c2ccc(N(CC(N)=O)S(=O)(=O)c3ccc(OC)cc3)c3ccccc23)cc1`, in data set [1], the Kd is above 10000 nM. Further, the 50% cytotoxic concentration (CC50) in data set [2] was above 100000 nM.

Take `COc1ccc(S(=O)(=O)N(CC(N)=O)c2ccc(N(CC(N)=O)S(=O)(=O)c3ccc(NC(=O)CCN4CCN(C(C)C)CC4)cc3)c3ccccc23)cc1`: in data set [1], the Kd was 710 nM. Further, the CC50 in data set [2] is above 100000 nM.

`CCN1CCN(CCC(=O)Nc2ccc(S(=O)(=O)N(CC(N)=O)c3ccc(N(CC(N)=O)S(=O)(=O)c4ccc(OC)cc4)c4ccccc34)cc2)CC1.O=C(O)C(F)(F)F`: the solubility at 24 h worked out at 135 µg/mL in data set [3], 105 µg/mL in data set [4] and 1260 µg/mL in data set [5].

Turning to `COc1ccc(S(=O)(=O)N(CC(N)=O)c2ccc(N(CC(N)=O)S(=O)(=O)c3ccc(NC(=O)CN4CCCCC4)cc3)c3ccccc23)cc1`, the Kd in data set [1] stood at 6640 nM. The CC50 in data set [2] is above 100000 nM.

Turning to `COc1ccc(S(=O)(=O)N(CC(N)=O)c2ccc(N(CC(N)=O)S(=O)(=O)c3ccc(NC(=O)CCN4CCSCC4)cc3)c3ccccc23)cc1`, in data set [1], the Kd is 2910 nM. In data set [2], the CC50 is above 50000 nM.

For `COc1ccc(S(=O)(=O)N(CC(N)=O)c2ccc(N(CC(N)=O)S(=O)(=O)c3ccc(NC(C)=O)cc3)c3ccccc23)cc1`, the outcome in data set [6], in data set [7] and in data set [8] was Active. The Kd in data set [1] was determined as 1760 nM. Besides, the CC50 in data set [2] was above 50000 nM.

For the compound `COc1ccc(S(=O)(=O)N(CC(N)=O)c2ccc(N(CC(N)=O)S(=O)(=O)c3ccc(NC(=O)CCN4CCCCC4)cc3)c3ccccc23)cc1`, the Kd in data set [1] came to 1420 nM. For the same compound, in data set [2], the CC50 was above 100000 nM.

On to `COc1ccc(S(=O)(=O)N(CC(N)=O)c2ccc(N(CC(N)=O)S(=O)(=O)c3ccc(NC(=O)CCN4CCOCC4)cc3)c3ccccc23)cc1`, for which the result in data set [6], in data set [7] and in data set [8] was Active. Moreover, the Kd in data set [1] is 1030 nM. Also, the CC50 in data set [2] is above 100000 nM.

Take `CC(=O)O.CCN1CCN(CCC(=O)Nc2ccc(S(=O)(=O)N(CC(N)=O)c3ccc(N(CC(N)=O)S(=O)(=O)c4ccc(OC)cc4)c4ccccc34)cc2)CC1`: the values for the solubility at 24 h in data set [3], in data set [4] and in data set [5] were 120 µg/mL, 77.9 µg/mL and 926 µg/mL, respectively.

Regarding `Br.Br.COc1ccc(S(=O)(=O)N(CC(N)=O)c2ccc(N(CC(N)=O)S(=O)(=O)c3ccc(N)cc3)c3ccccc23)cc1`, the solubility at 24 h came out at 58.6 µg/mL in data set [3], 40.7 µg/mL in data set [4] and 532 µg/mL in data set [5].

On to `COc1ccc(S(=O)(=O)N(CC(N)=O)c2ccc(N(CC(N)=O)S(=O)(=O)c3ccc(NC(=O)CN4CCSCC4)cc3)c3ccccc23)cc1`, for which, in data set [1], the Kd was 8940 nM. Also, the CC50 in data set [2] was above 100000 nM.
